Assay results reported in article PMC4932538, “Alkanediamide-Linked Bisbenzamidines Are Promising Antiparasitic Agents” (Pharmaceuticals, 2016).
“Also recorded” adds a separate entry of the source. Read-outs that look alike come from different tables or passages of the source.

Legend:
[1] = system: T. b. brucei Lab 110 EATRO (pentamidine-sensitive); experiment: In vitro antitrypanosomal activity, T.b. brucei Lab 110 EATRO; format: cell-based, Trypanosoma brucei brucei; details: Table S1, from IC50 of Table 1; for IC50: Trypanosoma brucei, read-out: pIC50 T.b. brucei (converted)
Method: The in vitro assays with the two isolates of T. brucei were conducted according to previously described procedures [14].

[2] = system: T. b. rhodesiense KETRi 243 (melarsoprol, pentamidine- and diminazene diaceturate-resistant); experiment: In vitro antitrypanosomal activity, T.b. rhodesiense KETRI 243; format: cell-based, Trypanosoma brucei rhodesiense; details: Table S1, from IC50 of Table 1; for IC50: Trypanosoma brucei, RHODESIENSE, read-out: pIC50 T.b. rhod (converted)
Method: (§5) The anti-T. cruzi activity was determined using intracellular amastigote forms of T. cruzi Tulahuen strain C2C4 in rat skeletal myoblasts (L6 cells) as described previously [24]. The anti-L. donovani activity was determined using the amastigotes of L. donovani strain MHOM-ET-67/L82 as described previously [24]. […] The cytotoxicity assays against rat skeletal myoblast L6-cells were performed as described previously [24].

[3] = system: intracellular amastigote forms of T. cruzi Tulahuen strain C2C4 in rat skeletal myoblasts (L6 cells); experiment: In vitro anti-T. cruzi activity; format: cell-based, Trypanosoma cruzi; details: average of at least two determinations
Method: as §5

[4] = system: amastigotes of L. donovani strain MHOM-ET-67/L82; experiment: In vitro anti-L. donovani activity; format: cell-based, Leishmania donovani; details: average of at least two determinations
Method: as §5

[5] = system: P. falciparum K1 (chloroquine-resistant); experiment: In vitro anti-plasmodial activity, K1; format: cell-based, Plasmodium falciparum
Method: as §5

[6] = system: rat skeletal myoblast L6-cells; experiment: Cytotoxicity against L6 cells; format: cell-based
Method: as §5

[7] = system: poly(dA-dT); experiment: DNA thermal melting with poly(dA-dT); format: binding; details: 1:5 compound to DNA base pair ratio; mean of at least two determinations
Method: (§1) In addition to the determination of the potency of the synthesized compounds against different strains of cell lines (Table 1), thermal melting experiments of these compounds were also conducted with poly(dA-dT) and calf thymus DNA (Table S1, supplementary file). […] The weaker binding to DNA (lower ΔTm values) compared to pentamidine might be attributed to the lower lipophilicity and higher PSA properties of these compounds since they would be expected to bind less favorably in the less polar environment of the minor grove of DNA as was reported for the aza-analogues of furamidine. […] Therefore, ability of these compounds to act at other potential targets cannot be ruled out.
(§2) The DNA binding affinity of the tested compounds was determined by measuring the change in mid-point of the thermal denaturation curves for a 1:5 compound to DNA base pair ratio as described previously. Each Tm value reported in Table S1 (supplementary file) represents the mean of at least two experimental determinations.

[8] = system: T. b. brucei Lab 110 EATRO (pentamidine-sensitive); set-up: method as in PMID 19736009; details: strain Lab 110; average of at least two determinations; cited from earlier work
[9] = system: T. b. rhodesiense KETRi 243 (melarsoprol, pentamidine- and diminazene diaceturate-resistant); set-up: method as in PMID 19736009; details: strain KETRI 243; average of at least two determinations; read-out: IC50 T.b. rhod; cited from earlier work
[10] = system: P. falciparum NF54 (chloroquine-sensitive); experiment: In vitro anti-plasmodial activity, NF54; format: cell-based, Plasmodium falciparum
[11] = system: calf thymus DNA; experiment: DNA thermal melting with calf thymus DNA; format: binding; details: 1:5 compound to DNA base pair ratio; mean of at least two determinations
Method: as §1, §2

[12] = system: T.b. brucei Lab 110 EATRO; experiment: In vivo trypanocidal activity in mice, Lab 110 EATRO
Method: (§3) The compounds were administered via the intraperitoneal route at doses ranging from 1.0 mg/kg/day to 25.0 mg/kg/day for 3 days unless otherwise noted. Pentamidine was used as the reference compound. All three of the tested compounds were effective in curing mice infected with the Lab 110 EATRO or KETRI 2002 strains at several doses.
(§4) The in vivo studies were conducted according to the procedures described previously.

[13] = system: T.b. rhodesiense KETRI 2002; experiment: In vivo trypanocidal activity in mice, KETRI 2002
Method: as §3, §4

[14] = Trypanosoma cruzi, TULAHUEN, L6
[15] = Plasmodium falciparum, K1, chloroquine-resistant strain, read-out: IC50 P. falcip K1
[16] = Rattus norvegicus, L6, cytotoxicity, read-out: IC50 L6 Cells
[17] = chloroquine-sensitive strain, read-out: IC50 P. falcip NF54
[18] = chloroquine-resistant strain, read-out: IC50 P. falcip K1
[19] = cytotoxicity, read-out: IC50 L6 Cells

Molecule | Thermal Melting ΔTm Poly(dA-dT) [7] [C] | IC50 [8] [nM] | IC50 [9] [nM] | pIC50 T.b. brucei [1] | pIC50 T.b. rhod [2] | IC50 [3] [nM] | IC50 [4] [nM] | IC50 [10, 17] [nM] | pIC50 P. falcip K1 ([5]; Table S1, from IC50 of Table 1) | IC50 [5, 18] [nM] | IC50 [6, 19] [nM] | Thermal Melting ΔTm CT-DNA [11] [C] | also measured
NC(=O)c1ccc(NC(=O)CCCCC(=O)Nc2ccc(C(N)=O)cc2)cc1 [Compound 8] | 0.0 | 2800 | 1100 |  |  |  |  |  |  |  |  |  | IC50 [1]: 2800 nM; IC50 [2]: 1100 nM; IC50 [3, 14]: > 100000 nM; IC50 ([4]; Leishmania donovani): > 100000 nM; IC50 [5, 15]: > 100000 nM; IC50 [6, 16]: > 100000 nM
N=C(N)c1ccc(NC(=O)CCCCCCCCC(=O)Nc2ccc(C(=N)N)cc2)cc1 [Compound 14] | 10.0 | 2 | 4 | 8.699 | 8.398 | 76400 | 68500 | 14 | 7.921 | 12 | 78600 | 6.6 | 
O=C(Cn1ccnc1[N+](=O)[O-])NCc1ccccc1 [benznidazole, reference compound] |  |  |  |  |  |  |  |  |  |  |  |  | IC50 [3, 14]: 1130 nM
N=C(N)c1ccc(NC(=O)CCCCCCC(=O)Nc2ccc(C(=N)N)cc2)cc1 [Compound 12] | 13.2 | 3 | 1 | 8.523 | 9.000 | > 100000 | > 100000 | 2 | 8.222 | 6 | 38400 | 7.1 | 
N,N′-bis[4-(aminoiminomethyl)phenyl] heptane-1,7-dicarboxamide [Compound 11] | 10.7 | 2 | 2 | 8.699 | 8.699 | > 100000 | > 100000 | 2 | 8.699 | 2 | 43000 | 6.4 | Mean Survival ([12]; 1.0, 2.5, 5, 10 mg/kg/day i.p. for 3 days (all doses)): >30 days; curing of infected mice ([12]; i.p., 3 days): the most effective; also recorded: highly effective; curing of infected mice ([13]; KETRI 2002, i.p., 3 days): the most effective; also recorded: highly effective; Mean Survival ([13]; KETRI 2002, 1.0, 2.5, 5, 10 mg/kg/day i.p. for 3 days (all doses)): >30 days
N,N′-bis[4-(aminoiminomethyl)phenyl] nonane-1,9-dicarboxamide [Compound 13] | 7.5 | 400 | 240 | 6.398 | 6.620 | 99500 | 67400 | 2 | 8.097 | 8 | 49200 | 4.6 | 
N=C(N)c1ccc(NC(=O)CCCCC(=O)Nc2cccc(C(=N)N)c2)cc1 [Compound 10] |  | 12 | 7 | 7.921 | 8.155 | > 100000 | > 100000 | 15 | 8.398 | 4 | > 100000 |  | 
COc1cc([C@@H]2c3cc4c(cc3[C@H](O)[C@H]3COC(=O)[C@H]23)OCO4)cc(OC)c1OC [podophyllotoxin, reference compound] |  |  |  |  |  |  |  |  |  |  |  |  | IC50 ([6]; Rattus norvegicus, L6, read-out: IC50 L6 Cells): 10 nM
NC(=O)c1cccc(NC(=O)CCCCC(=O)Nc2cccc(C(N)=O)c2)c1 [Compound 9] | 0.0 |  | 1970 |  |  |  |  |  |  |  |  |  | IC50 [2]: 1970 nM; IC50 [3, 14]: > 100000 nM; IC50 ([4]; Leishmania donovani): > 100000 nM; IC50 [5, 15]: > 100000 nM; IC50 [6, 16]: 46400 nM
N,N′-bis[4-(aminoiminomethyl)phenyl] dodecane-1,12-dicarboxamide [Compound 15] | 8.5 | 8 | 7 | 8.097 | 8.155 | 80900 | 10700 | 32 | 7.824 | 15 | 80200 |  | 
N=C(N)c1cccc(NC(=O)CCCCC(=O)Nc2cccc(C(=N)N)c2)c1 [Compound 7] | 13.8 | 41 | 21 | 7.387 | 7.678 | > 100000 | > 100000 |  | 6.420 | 380 | > 100000 |  | 
CCN(CC)CCCC(C)Nc1ccnc2cc(Cl)ccc12 (centres unmarked) [chloroquine, reference compound] |  |  |  |  |  |  |  |  |  |  |  |  | IC50 ([10]; Plasmodium falciparum, NF54, read-out: IC50 P. falcip NF54): 6 nM; IC50 ([5]; Plasmodium falciparum, K1, read-out: IC50 P. falcip K1): 180 nM
N,N′-bis[4-(aminoiminomethyl)phenyl] butane-1,4-dicarboxamide [Compound 2] | 11.5 | 9000 | 2190 | 5.046 | 5.660 | > 100000 | > 100000 |  | 6.538 | 290 | 28000 | 8.1 | 
N#Cc1ccc(NC(=O)CCCC(=O)Nc2ccc(C#N)cc2)cc1 [Compound 3] | 0.15 | 6500 | 7900 |  |  |  |  |  |  |  |  | −0.2 | IC50 [1]: 6500 nM; IC50 [2]: 7910 nM; IC50 [3, 14]: > 100000 nM; IC50 ([4]; Leishmania donovani): > 100000 nM; IC50 ([5]; Plasmodium falciparum, K1, Table S1, from IC50 of Table 1, read-out: pIC50 P. falcip K1 (converted)): 44800 nM; IC50 [5, 15]: 44800 nM; IC50 [6, 16]: > 100000 nM
